These results are taken from patent publication US20030004175A1, “1,3-oxathiolane nucleoside analogues” (BioChem Pharma Inc., priority 1990, published 2003).

In brackets after ≈: the same amount, converted by molar mass.

One series deals with JM cells. In words: Cytotoxicity, viable cell count by trypan blue exclusion, JM cells. In kind it is cell-based. The conditions noted are these: 5 days at 37° C. Here is the method: (§1) The cytotoxicites of the compounds of Example 2, the racemic compound (BCH-189; […] H9, JM, CEM, C8166 and U937. […] After incubation at 37° C. for 5 days, the viable cell count was determined by removing a sample of cell suspension and counting trypan blue excluding cells in a haemocytometer.

For another series, the system named is U937 cells. In words: Cytotoxicity, viable cell count by trypan blue exclusion, U937 cells. The settings on record: 5 days at 37° C. In kind it is cell-based. As to the method:
as §1

For another series, the system named is H9 cells. Briefly: Cytotoxicity, viable cell count by trypan blue exclusion, H9 cells. The format is cell-based. The settings on record: 5 days at 37° C. As to the method: as §1
In another series the test system is C8166 cells. Briefly: Cytotoxicity, viable cell count by trypan blue exclusion, C8166 cells. The format is cell-based, human. The conditions noted are these: 5 days at 37° C. Here is the method: as §1
The next series deals with CEM cells. Briefly: Cytotoxicity, viable cell count by trypan blue exclusion, CEM cells. The conditions noted are these: 5 days at 37° C. The format is cell-based, human. Here is the method:
as §1

The test system of the next series is HIV-1 strain U455. In words: Antiviral activity by inhibition of syncytium formation, CEM cells infected with HIV-1 U455. The format is cell-based. The settings on record: Human immunodeficiency virus 1, CCRF-CEM, read-out: 50% Antiviral Activity. Here is the method: (§2) Antiviral activity of the compounds of Example 2 were determined against three strains of HIV-1 and one strain of HIV-2 in the following cell lines.
(§3) CEM cells, a human T-lymphoblastoid cell line, infected with HIV-1 strains RF and U455, or HIV-2 strain ROD.
(§4) Antiviral activities in C8166, JM, and CEM cells were determined by inhibition of syncytium formation (Tochikura et al Virology, 164, 542-546) and in MT-4 cells by inhibition of formazan conversion (Baba et al; (1987) Biochem Biophys Res Commun., 142, 128-134; Mossman (1983) J. Immun Meth; 65, 55-57). Antiviral activities were also determined by analysing the amount of HIV p24 antigen synthesised in the presence and absence of enantiomers.

Series [1] relates to HIV-1 strain RF. In words: Antiviral activity by inhibition of syncytium formation, C8166 cells infected with HIV-1 RF. The format is cell-based. The settings on record: Human immunodeficiency virus 1, read-out: 50% Antiviral Activity. Here is the method: as §2
(§5) C8166 cells, a human T-lymphoblastoid cell line, infected with HIV-1 strain RF.
as §4

The test system of series [2] is HIV-1 strain GB8. In words: Inhibition of HIV p24 antigen synthesis, JM cells, strain GB8. In kind it is cell-based. The settings on record: Human immunodeficiency virus 1, read-out: 50% Inhibition HIV p24 Synthesis. As to the method: as §2
(§6) JM cells, a semi-mature T-cell line derived from a patient with lymphoblastic leukaemia, infected with HIV-1 strain GB8.
as §4

The test system of series [3] is HIV-1 strain GB8. In words: Antiviral activity by inhibition of syncytium formation, JM cells infected with HIV-1 GB8. In kind it is cell-based. The settings on record: Human immunodeficiency virus 1, read-out: 50% Antiviral Activity. As to the method:
as §2, §6, §4

In series [4] the test system is HIV-1 strain RF. In words: Antiviral activity by inhibition of syncytium formation, CEM cells infected with HIV-1 RF. In kind it is cell-based. The settings on record: Human immunodeficiency virus 1, CCRF-CEM, read-out: 50% Antiviral Activity. Here is the method:
as §2, §3, §4

For series [5], the system named is HIV-1 strain RF. In words: Inhibition of HIV p24 antigen synthesis, MT-4 cells, strain RF. In kind it is cell-based. The settings on record: Human immunodeficiency virus 1, MT4, read-out: 50% Inhibition HIV p24 Synthesis. Here is the method: as §2
(§7) MT-4 cells, a human T-cell leukaemia cell line, infected with HIV-1 strain RF.
as §4

The test system of the next series is HIV-2 strain ROD. Briefly: Antiviral activity by inhibition of syncytium formation, CEM cells infected with HIV-2 ROD. In kind it is cell-based. The conditions noted are these: Human immunodeficiency virus 2, CCRF-CEM, read-out: 50% Antiviral Activity. As to the method:
as §2, §3, §4

The subject of series [6] is HIV-1 strain RF. In words: Inhibition of HIV p24 antigen synthesis, C8166 cells, strain RF. The conditions noted are these: Human immunodeficiency virus 1, read-out: 50% Inhibition HIV p24 Synthesis. In kind it is cell-based. As to the method: as §2, §5, §4
Series [7] concerns HIV-1 strain RF. Briefly: Antiviral activity by inhibition of formazan conversion, MT-4 cells infected with HIV-1 RF. In kind it is cell-based. The conditions noted are these: Human immunodeficiency virus 1, MT4, Formazan assay, read-out: 50% Antiviral Activity. As to the method:
as §2, §7, §4

The next series relates to CD4 cell lines. In words: Cytotoxicity (summary statement). In kind it is cell-based. Here is the method: Compounds for test were serially diluted from 100 μg/ml to 0.3 μg/ml (final concentrations) in 96 well microtitre plates. 3.6×10^4 cells were inoculated into each well of the plates including drug-free controls. After incubation at 37° C. for 5 days, the viable cell count was determined by removing a sample of cell suspension and counting trypan blue excluding cells in a haemocytometer.

On to `Nc1ccn([C@@H]2CS[C@H](CO)O2)c(=O)n1` (racemic) [BCH-189, (±)-(cis)-4-Amino-1-(2-hydroxymethyl-1,3-oxathiolan-5-yl)-(1H)-pyrimidin-2-one], for which the “50% Cytoxicity” value was determined as 3.5 µg/mL in the series on JM cells; 15 µg/mL in the series with U937 cells; 8 µg/mL in the series on H9 cells; 90 µg/mL in the series on C8166 cells; 3 µg/mL with CEM cells.
Take `Nc1ccn([C@H]2CS[C@@H](CO)O2)c(=O)n1` [(+)-enantiomer, (2S,cis)-4-amino-1-(2-hydroxymethyl-1,3-oxathiolan-5-yl)-(1H)-pyrimidin-2-one]: the IC50 in the series on HIV-1 strain U455 stood at 0.006 mg/L (≈ 0.0262 µM); with HIV-1 strain RF [1], 0.05 mg/L (≈ 0.218 µM); with HIV-1 strain GB8 [2], 0.033 mg/L (≈ 0.144 µM); in the series on HIV-1 strain GB8 [3], 0.03 mg/L (≈ 0.131 µM); in the series with HIV-1 strain RF [4], 0.07 mg/L (≈ 0.305 µM); in the series with HIV-1 strain RF [5], 0.0008 mg/L (≈ 0.00349 µM). For the same compound, the values for the IC50 in the series with HIV-2 strain ROD, in the series on HIV-1 strain RF [6] and in the series with HIV-1 strain RF [7] were 0.045 mg/L (≈ 0.196 µM), 0.021 mg/L (≈ 0.0916 µM) and 0.28 mg/L (≈ 1.22 µM), respectively. Also, the “50% Cytoxicity” value was 1.5 µg/mL in the series with JM cells; 4 µg/mL in the series with U937 cells; 2 µg/mL in the series with H9 cells; 35 µg/mL with C8166 cells; 1 µg/mL in the series on CEM cells.
Turning to `Nc1ccn([C@@H]2CS[C@H](CO)O2)c(=O)n1` [(−)-enantiomer, (−)-cis-4-Amino-1-(2-hydroxymethyl-1,3-oxathiolan-5-yl)-(1H)-pyrimidin-2-one], the IC50 in the series on HIV-1 strain U455 turned out to be 0.008 mg/L (≈ 0.0349 µM); in the series on HIV-1 strain RF [1] it was 0.01 mg/L (≈ 0.0436 µM); in the series on HIV-1 strain GB8 [2] it was 0.016 mg/L (≈ 0.0698 µM); with HIV-1 strain GB8 [3], 0.05 mg/L (≈ 0.218 µM); in the series on HIV-1 strain RF [4], 0.04 mg/L (≈ 0.174 µM); in the series with HIV-1 strain RF [5], 0.0004 mg/L (≈ 0.00174 µM). For the same compound, the IC50 with HIV-2 strain ROD is 0.055 mg/L (≈ 0.24 µM); with HIV-1 strain RF [6] it was 0.016 mg/L (≈ 0.0698 µM); in the series on HIV-1 strain RF [7] it was 0.2 mg/L (≈ 0.872 µM). Besides, the “cytotoxicity compared with the other enantiomer” value in the series on CD4 cell lines is reported as “considerably lower cytotoxicity”. Moreover, the “50% Cytoxicity” value with JM cells was 30 µg/mL; in the series with U937 cells, above 100 µg/mL; in the series with H9 cells it was above 100 µg/mL; in the series with C8166 cells, above 100 µg/mL; in the series with CEM cells, above 100 µg/mL.
